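Each compound was tested at five concentrations against cells in 96-well plates for 48 hours. The concentration for full growth arrest is given as TGI.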
Key:
Assay in all cases: NCI-60 cell line screen, 48 h
OVCAR-3 ovarian = tested on: OVCAR-3 ovarian
NCI-H460 lung = tested on: NCI-H460 lung
MDA-MB-231 breast = tested on: MDA-MB-231 breast
SK-MEL-2 melanoma = tested on: SK-MEL-2 melanoma
HOP-92 NSCLC = tested on: HOP-92 NSCLC
BT-549 breast = tested on: BT-549 breast
HT29 colon = tested on: HT29 colon
PC-3 prostate = tested on: PC-3 prostate
ACHN renal = tested on: ACHN renal
IGROV1 ovarian = tested on: IGROV1 ovarian
DU-145 prostate = tested on: DU-145 prostate
MDA-N = tested on: MDA-N
MCF7 breast = tested on: MCF7 breast
CAKI-1 renal = tested on: CAKI-1 renal
A498 renal = tested on: A498 renal
SF-539 CNS = tested on: SF-539 CNS
MDA-MB-435 = tested on: MDA-MB-435
TK-10 renal = tested on: TK-10 renal
HCT-116 colon = tested on: HCT-116 colon
NCI-H23 lung = tested on: NCI-H23 lung
SK-MEL-28 melanoma = tested on: SK-MEL-28 melanoma
U251 CNS = tested on: U251 CNS
M14 melanoma = tested on: M14 melanoma
NCI-H522 lung = tested on: NCI-H522 lung
A549 NSCLC = tested on: A549 NSCLC
SF-295 CNS = tested on: SF-295 CNS
K-562 leukemia = tested on: K-562 leukemia
SR leukemia = tested on: SR leukemia
SK-OV-3 ovarian = tested on: SK-OV-3 ovarian
SNB-19 CNS = tested on: SNB-19 CNS
SK-MEL-5 melanoma = tested on: SK-MEL-5 melanoma
COLO 205 colon = tested on: COLO 205 colon
LOX IMVI melanoma = tested on: LOX IMVI melanoma
HCT-15 colon = tested on: HCT-15 colon
UACC-62 melanoma = tested on: UACC-62 melanoma
MALME-3M melanoma = tested on: MALME-3M melanoma
HL-60(TB) leukemia = tested on: HL-60(TB) leukemia
HCC-2998 colon = tested on: HCC-2998 colon
SN12C renal = tested on: SN12C renal
SW-620 colon = tested on: SW-620 colon
OVCAR-8 ovarian = tested on: OVCAR-8 ovarian
CCRF-CEM leukemia = tested on: CCRF-CEM leukemia
UO-31 renal = tested on: UO-31 renal
SF-268 CNS = tested on: SF-268 CNS
OVCAR-4 ovarian = tested on: OVCAR-4 ovarian
NCI/ADR-RES ovarian = tested on: NCI/ADR-RES ovarian
HOP-62 NSCLC = tested on: HOP-62 NSCLC
SNB-75 CNS = tested on: SNB-75 CNS
EKVX NSCLC = tested on: EKVX NSCLC
OVCAR-5 ovarian = tested on: OVCAR-5 ovarian
UACC-257 melanoma = tested on: UACC-257 melanoma
786-0 renal = tested on: 786-0 renal
NCI-H226 lung = tested on: NCI-H226 lung
KM12 colon = tested on: KM12 colon
RXF 393 renal = tested on: RXF 393 renal
T-47D breast = tested on: T-47D breast
RPMI-8226 leukemia = tested on: RPMI-8226 leukemia
MOLT-4 leukemia = tested on: MOLT-4 leukemia

NC(=S)C1=C(N)Oc2c(c(=O)oc3ccccc23)C1c1ccc(Br)cc1 (configuration not stated)
TGI (OVCAR-3 ovarian): > 100 µM | TGI (NCI-H460 lung): > 100 µM | TGI (MDA-MB-231 breast): > 100 µM | TGI (SK-MEL-2 melanoma): > 100 µM | TGI (HOP-92 NSCLC): > 100 µM | TGI (BT-549 breast): > 100 µM | TGI (HT29 colon): > 100 µM | TGI (PC-3 prostate): > 100 µM | TGI (ACHN renal): > 100 µM | TGI (IGROV1 ovarian): > 100 µM | TGI (DU-145 prostate): > 100 µM | TGI (MDA-N): > 100 µM | TGI (MCF7 breast): > 100 µM | TGI (CAKI-1 renal): > 100 µM | TGI (A498 renal): > 100 µM | TGI (SF-539 CNS): > 100 µM | TGI (MDA-MB-435): > 100 µM | TGI (TK-10 renal): > 100 µM | TGI (HCT-116 colon): > 100 µM | TGI (NCI-H23 lung): > 100 µM | TGI (SK-MEL-28 melanoma): > 100 µM | TGI (U251 CNS): > 100 µM | TGI (M14 melanoma): > 100 µM | TGI (NCI-H522 lung): > 100 µM | TGI (A549 NSCLC): > 100 µM | TGI (SF-295 CNS): > 100 µM | TGI (K-562 leukemia): > 100 µM | TGI (SR leukemia): 63.2 µM | TGI (SK-OV-3 ovarian): > 100 µM | TGI (SNB-19 CNS): > 100 µM | TGI (SK-MEL-5 melanoma): > 100 µM | TGI (COLO 205 colon): > 100 µM | TGI (LOX IMVI melanoma): > 100 µM | TGI (HCT-15 colon): > 100 µM | TGI (UACC-62 melanoma): > 100 µM | TGI (MALME-3M melanoma): > 100 µM | TGI (HL-60(TB) leukemia): > 100 µM | TGI (HCC-2998 colon): > 100 µM | TGI (SN12C renal): > 100 µM | TGI (SW-620 colon): > 100 µM | TGI (OVCAR-8 ovarian): > 100 µM | TGI (CCRF-CEM leukemia): > 100 µM | TGI (UO-31 renal): > 100 µM | TGI (SF-268 CNS): > 100 µM | TGI (OVCAR-4 ovarian): > 100 µM | TGI (NCI/ADR-RES ovarian): > 100 µM | TGI (HOP-62 NSCLC): > 100 µM | TGI (SNB-75 CNS): > 100 µM | TGI (EKVX NSCLC): > 100 µM | TGI (OVCAR-5 ovarian): > 100 µM | TGI (UACC-257 melanoma): > 100 µM | TGI (786-0 renal): > 100 µM

CCOC(=O)CCSS(=O)(=O)c1ccccc1
TGI (OVCAR-3 ovarian): > 100 µM | TGI (NCI-H460 lung): > 100 µM | TGI (SK-MEL-2 melanoma): > 100 µM | TGI (HOP-92 NSCLC): > 100 µM | TGI (BT-549 breast): > 100 µM | TGI (PC-3 prostate): > 100 µM | TGI (ACHN renal): > 100 µM | TGI (DU-145 prostate): > 100 µM | TGI (MDA-N): > 100 µM | TGI (MCF7 breast): > 100 µM | TGI (CAKI-1 renal): > 100 µM | TGI (A498 renal): > 100 µM | TGI (MDA-MB-435): > 100 µM | TGI (NCI-H226 lung): > 100 µM | TGI (TK-10 renal): > 100 µM | TGI (KM12 colon): > 100 µM | TGI (NCI-H23 lung): > 100 µM | TGI (SK-MEL-28 melanoma): > 100 µM | TGI (U251 CNS): > 100 µM | TGI (M14 melanoma): > 100 µM | TGI (A549 NSCLC): > 100 µM | TGI (SF-295 CNS): > 100 µM | TGI (SK-OV-3 ovarian): > 100 µM | TGI (SNB-19 CNS): > 100 µM | TGI (SK-MEL-5 melanoma): > 100 µM | TGI (COLO 205 colon): > 100 µM | TGI (LOX IMVI melanoma): 77.4 µM | TGI (HCT-15 colon): > 100 µM | TGI (UACC-62 melanoma): > 100 µM | TGI (HL-60(TB) leukemia): > 100 µM | TGI (HCC-2998 colon): > 100 µM | TGI (SN12C renal): > 100 µM | TGI (RXF 393 renal): > 100 µM | TGI (T-47D breast): > 100 µM | TGI (SW-620 colon): > 100 µM | TGI (OVCAR-8 ovarian): > 100 µM | TGI (CCRF-CEM leukemia): > 100 µM | TGI (OVCAR-4 ovarian): > 100 µM | TGI (NCI/ADR-RES ovarian): > 100 µM | TGI (HOP-62 NSCLC): > 100 µM | TGI (RPMI-8226 leukemia): 99 µM | TGI (SNB-75 CNS): > 100 µM | TGI (EKVX NSCLC): > 100 µM | TGI (OVCAR-5 ovarian): > 100 µM | TGI (UACC-257 melanoma): > 100 µM | TGI (786-0 renal): 63.9 µM

COC(=O)[C@]1(c2cc3ccccc3[nH]2)CC2CN(C(=O)OCc3ccccc3)C1C=C2OC (some centres not stated)
TGI (OVCAR-3 ovarian): 91.4 µM | TGI (NCI-H460 lung): > 100 µM | TGI (MDA-MB-231 breast): 56.9 µM | TGI (SK-MEL-2 melanoma): 44 µM | TGI (HOP-92 NSCLC): 80.6 µM | TGI (BT-549 breast): 82.3 µM | TGI (HT29 colon): 63.6 µM | TGI (PC-3 prostate): > 100 µM | TGI (ACHN renal): 74.3 µM | TGI (IGROV1 ovarian): > 100 µM | TGI (DU-145 prostate): > 100 µM | TGI (MDA-N): > 100 µM | TGI (MCF7 breast): 58.5 µM | TGI (CAKI-1 renal): > 100 µM | TGI (SF-539 CNS): 55.2 µM | TGI (MDA-MB-435): 55.3 µM | TGI (NCI-H226 lung): 55 µM | TGI (TK-10 renal): > 100 µM | TGI (HCT-116 colon): > 100 µM | TGI (KM12 colon): > 100 µM | TGI (NCI-H23 lung): > 100 µM | TGI (SK-MEL-28 melanoma): > 100 µM | TGI (U251 CNS): > 100 µM | TGI (M14 melanoma): 47 µM | TGI (NCI-H522 lung): 91.3 µM | TGI (A549 NSCLC): > 100 µM | TGI (SF-295 CNS): > 100 µM | TGI (K-562 leukemia): > 100 µM | TGI (SK-OV-3 ovarian): > 100 µM | TGI (SNB-19 CNS): > 100 µM | TGI (COLO 205 colon): 38 µM | TGI (LOX IMVI melanoma): > 100 µM | TGI (HCT-15 colon): > 100 µM | TGI (UACC-62 melanoma): 36.7 µM | TGI (MALME-3M melanoma): 66.4 µM | TGI (HL-60(TB) leukemia): 43.7 µM | TGI (HCC-2998 colon): 46.8 µM | TGI (SN12C renal): > 100 µM | TGI (RXF 393 renal): 57.6 µM | TGI (T-47D breast): > 100 µM | TGI (SW-620 colon): > 100 µM | TGI (OVCAR-8 ovarian): > 100 µM | TGI (CCRF-CEM leukemia): 69.3 µM | TGI (SF-268 CNS): > 100 µM | TGI (OVCAR-4 ovarian): 98.8 µM | TGI (NCI/ADR-RES ovarian): > 100 µM | TGI (HOP-62 NSCLC): > 100 µM | TGI (RPMI-8226 leukemia): 72.1 µM | TGI (MOLT-4 leukemia): 64.4 µM | TGI (SNB-75 CNS): 71.2 µM | TGI (EKVX NSCLC): > 100 µM | TGI (OVCAR-5 ovarian): 44.2 µM | TGI (UACC-257 melanoma): 49.9 µM | TGI (786-0 renal): > 100 µM
